pIC50: −log10 of the molar value. Activity calls are given as the source filed them. The rule behind the calls is not given here.
How the values were obtained:
HCT-116 [1] = assay: Inhibition of AKT phosphorylation at S473 residue in human HCT-116 cells at 10 uM after 24 hrs by Western blot analysis; format: cell-based
[2] = Metabolic stability in Sprague-Dawley rat liver microsome; format: ADME; settings: microsomes
[3] = AUC (0 to 72 hrs) in Sprague-Dawley rat at 20 mg/kg, iv by LC-MS/MS analysis; format: ADME, organism-based; design: time < 72 hr, route intravenous, dose 20 mg/kg; settings: in vivo
[4] = AUC (0 to infinity) in Sprague-Dawley rat at 20 mg/kg, iv by LC-MS/MS analysis; format: ADME, organism-based; design: route intravenous, time infinity, dose 20 mg/kg; settings: in vivo
[5] = MRT in Sprague-Dawley rat at 20 mg/kg, iv by LC-MS/MS analysis; format: ADME, organism-based; settings: in vivo
[6] = Half life in Sprague-Dawley rat at 20 mg/kg, iv by LC-MS/MS analysis; format: ADME, organism-based; settings: in vivo
[7] = Tmax in Sprague-Dawley rat at 20 mg/kg, iv by LC-MS/MS analysis; format: ADME, organism-based; settings: in vivo
[8] = Volume of distribution at steady state in Sprague-Dawley rat at 20 mg/kg, iv by LC-MS/MS analysis; format: ADME, organism-based; settings: in vivo
Cytochrome P450 1A2 = Cytochrome P450 1A2 (Homo sapiens, UniProt P05177); assay: Inhibition of CYP1A2 (unknown origin); format: ADME
Cytochrome P450 2C9 = Cytochrome P450 2C9 (Homo sapiens, UniProt P11712); assay: Inhibition of CYP2C9 (unknown origin); format: ADME
Chain of Cytochrome P450 2C9 (P11712 whole entry): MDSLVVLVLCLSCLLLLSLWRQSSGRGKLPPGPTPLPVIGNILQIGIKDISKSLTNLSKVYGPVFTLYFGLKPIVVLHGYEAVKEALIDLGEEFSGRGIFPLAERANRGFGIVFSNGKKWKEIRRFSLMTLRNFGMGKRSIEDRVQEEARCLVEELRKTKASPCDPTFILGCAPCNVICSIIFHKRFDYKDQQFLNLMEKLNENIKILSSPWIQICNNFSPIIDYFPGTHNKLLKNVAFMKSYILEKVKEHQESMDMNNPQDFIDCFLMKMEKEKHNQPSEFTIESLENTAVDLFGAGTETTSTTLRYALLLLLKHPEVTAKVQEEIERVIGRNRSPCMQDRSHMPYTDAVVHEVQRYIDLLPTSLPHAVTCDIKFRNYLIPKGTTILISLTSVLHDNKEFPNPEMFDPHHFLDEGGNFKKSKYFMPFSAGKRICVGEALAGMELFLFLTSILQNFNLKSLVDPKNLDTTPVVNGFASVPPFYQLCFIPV

Cytochrome P450 2C19 = Cytochrome P450 2C19 (Homo sapiens, UniProt P33261); assay: Inhibition of CYP2C19 (unknown origin); format: ADME
Chain of Cytochrome P450 2C19 (P33261 whole entry): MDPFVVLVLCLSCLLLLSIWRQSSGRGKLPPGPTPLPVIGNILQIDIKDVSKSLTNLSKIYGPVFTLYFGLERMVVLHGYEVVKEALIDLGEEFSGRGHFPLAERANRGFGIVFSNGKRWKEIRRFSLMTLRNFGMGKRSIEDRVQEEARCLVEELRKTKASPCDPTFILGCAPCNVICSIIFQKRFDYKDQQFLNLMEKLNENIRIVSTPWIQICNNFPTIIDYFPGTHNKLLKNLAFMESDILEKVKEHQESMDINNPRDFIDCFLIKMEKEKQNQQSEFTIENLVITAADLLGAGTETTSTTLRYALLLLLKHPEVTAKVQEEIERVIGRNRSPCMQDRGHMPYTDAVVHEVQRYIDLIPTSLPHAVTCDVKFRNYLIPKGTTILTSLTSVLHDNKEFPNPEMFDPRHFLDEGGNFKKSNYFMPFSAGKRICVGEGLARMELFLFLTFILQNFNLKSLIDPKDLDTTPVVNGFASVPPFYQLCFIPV

Cytochrome P450 2D6 = Cytochrome P450 2D6 (Homo sapiens, UniProt P10635); assay: Inhibition of CYP2D6 (unknown origin); format: ADME
Chain of Cytochrome P450 2D6 (P10635 whole entry): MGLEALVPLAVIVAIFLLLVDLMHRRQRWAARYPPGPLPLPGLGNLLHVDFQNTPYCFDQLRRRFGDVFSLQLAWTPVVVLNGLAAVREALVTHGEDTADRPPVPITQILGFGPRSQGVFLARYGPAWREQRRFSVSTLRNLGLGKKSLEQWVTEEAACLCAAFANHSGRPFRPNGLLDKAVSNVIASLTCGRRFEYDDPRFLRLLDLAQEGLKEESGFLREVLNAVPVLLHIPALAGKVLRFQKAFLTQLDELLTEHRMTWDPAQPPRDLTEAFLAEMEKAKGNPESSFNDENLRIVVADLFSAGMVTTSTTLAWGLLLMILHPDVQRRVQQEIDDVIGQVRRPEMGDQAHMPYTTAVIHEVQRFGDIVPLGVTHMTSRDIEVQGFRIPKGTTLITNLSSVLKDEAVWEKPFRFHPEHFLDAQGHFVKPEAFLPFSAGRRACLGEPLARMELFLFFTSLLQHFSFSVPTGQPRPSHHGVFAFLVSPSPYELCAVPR

HCT-116 [9] = assay: Antitumor activity against human HCT-116 cells xenografted in BALB/c nude mouse assessed as tumor size at 20 mg/kg, iv administered for 19 days (reference value: 1264.1+/-95.7 mm3); format: functional; settings: time 19 day
HCT-116 [10] = assay: Antitumor activity against human HCT-116 cells xenografted in BALB/c nude mouse assessed as tumor growth inhibition at 20 mg/kg, iv administered for 19 days; format: functional; settings: HCT-116, iv, 456 h, time 19 day, read-out: TGI
Spleen = assay: Toxicity in BALB/c mouse assessed as effect on spleen by H and E staining based histological analysis; format: tissue-based; settings: in vivo
Heart = assay: Toxicity in BALB/c mouse assessed as effect on heart by H and E staining based histological analysis; format: tissue-based; settings: in vivo
Lung = assay: Toxicity in BALB/c mouse assessed as effect on lungs by H and E staining based histological analysis; format: tissue-based; settings: in vivo
Kidney = assay: Toxicity in BALB/c mouse assessed as effect on kidney by H and E staining based histological analysis; format: tissue-based; settings: in vivo
Liver = assay: Toxicity in BALB/c mouse assessed as effect on liver by H and E staining based histological analysis; format: tissue-based; settings: in vivo
Mus musculus = assay: Hyperglycemic activity in ICR mouse model assessed as effect on blood glucose level at 20 mg/kg, iv by glucometer; format: toxicity, organism-based; settings: in vivo
[11] = target: Phosphatidylinositol 4,5-bisphosphate 3-kinase catalytic subunit alpha isoform (Homo sapiens, UniProt P42336); assay: Inhibition of PI3Kalpha (unknown origin) using PIP2 as substrate in presence of ATP incubated for 60 mins by ADP-glo based luminescence assay
Chain of Phosphatidylinositol 4,5-bisphosphate 3-kinase catalytic subunit alpha isoform (P42336 whole entry, canonical isoform): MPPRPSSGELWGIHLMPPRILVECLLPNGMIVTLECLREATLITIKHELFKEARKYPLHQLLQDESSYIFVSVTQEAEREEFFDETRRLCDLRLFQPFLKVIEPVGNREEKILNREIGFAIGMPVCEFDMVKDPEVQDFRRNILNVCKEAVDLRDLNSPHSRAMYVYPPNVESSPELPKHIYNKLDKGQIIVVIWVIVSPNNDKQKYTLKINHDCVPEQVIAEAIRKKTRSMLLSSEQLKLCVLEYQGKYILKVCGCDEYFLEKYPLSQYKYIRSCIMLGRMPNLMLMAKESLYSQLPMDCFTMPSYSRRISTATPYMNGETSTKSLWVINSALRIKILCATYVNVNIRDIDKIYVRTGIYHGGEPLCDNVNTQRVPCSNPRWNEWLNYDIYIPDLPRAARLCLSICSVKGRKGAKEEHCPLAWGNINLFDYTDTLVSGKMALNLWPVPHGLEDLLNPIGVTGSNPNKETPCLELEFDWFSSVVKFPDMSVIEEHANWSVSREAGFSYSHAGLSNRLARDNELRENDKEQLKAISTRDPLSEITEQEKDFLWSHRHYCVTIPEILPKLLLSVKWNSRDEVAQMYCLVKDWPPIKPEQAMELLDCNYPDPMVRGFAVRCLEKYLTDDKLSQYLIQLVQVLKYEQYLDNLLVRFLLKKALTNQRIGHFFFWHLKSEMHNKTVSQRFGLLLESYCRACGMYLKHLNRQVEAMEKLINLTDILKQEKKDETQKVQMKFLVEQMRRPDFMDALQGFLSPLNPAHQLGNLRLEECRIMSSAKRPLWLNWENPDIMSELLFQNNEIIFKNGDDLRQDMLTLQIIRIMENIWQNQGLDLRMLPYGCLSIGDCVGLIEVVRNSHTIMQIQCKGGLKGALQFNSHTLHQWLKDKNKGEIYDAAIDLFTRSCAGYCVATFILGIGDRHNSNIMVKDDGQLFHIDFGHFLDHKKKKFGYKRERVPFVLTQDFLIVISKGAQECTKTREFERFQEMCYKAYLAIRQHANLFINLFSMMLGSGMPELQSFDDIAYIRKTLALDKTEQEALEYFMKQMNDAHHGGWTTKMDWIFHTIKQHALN

[12] = target: Serine/threonine-protein kinase mTOR (Homo sapiens, UniProt P42345); assay: Inhibition of mTOR (unknown origin) using U-Light-4E-BP1 peptide as a substrate in presence of ATP incubated for 45 mins by Lance ultra assay
[13] = target: Phosphatidylinositol 4,5-bisphosphate 3-kinase catalytic subunit beta isoform (Homo sapiens, UniProt P42338); assay: Inhibition of PI3Kbeta (unknown origin) using PIP2 as substrate in presence of ATP incubated for 60 mins by ADP-glo based luminescence assay
Chain of Phosphatidylinositol 4,5-bisphosphate 3-kinase catalytic subunit beta isoform (P42338 whole entry, canonical isoform): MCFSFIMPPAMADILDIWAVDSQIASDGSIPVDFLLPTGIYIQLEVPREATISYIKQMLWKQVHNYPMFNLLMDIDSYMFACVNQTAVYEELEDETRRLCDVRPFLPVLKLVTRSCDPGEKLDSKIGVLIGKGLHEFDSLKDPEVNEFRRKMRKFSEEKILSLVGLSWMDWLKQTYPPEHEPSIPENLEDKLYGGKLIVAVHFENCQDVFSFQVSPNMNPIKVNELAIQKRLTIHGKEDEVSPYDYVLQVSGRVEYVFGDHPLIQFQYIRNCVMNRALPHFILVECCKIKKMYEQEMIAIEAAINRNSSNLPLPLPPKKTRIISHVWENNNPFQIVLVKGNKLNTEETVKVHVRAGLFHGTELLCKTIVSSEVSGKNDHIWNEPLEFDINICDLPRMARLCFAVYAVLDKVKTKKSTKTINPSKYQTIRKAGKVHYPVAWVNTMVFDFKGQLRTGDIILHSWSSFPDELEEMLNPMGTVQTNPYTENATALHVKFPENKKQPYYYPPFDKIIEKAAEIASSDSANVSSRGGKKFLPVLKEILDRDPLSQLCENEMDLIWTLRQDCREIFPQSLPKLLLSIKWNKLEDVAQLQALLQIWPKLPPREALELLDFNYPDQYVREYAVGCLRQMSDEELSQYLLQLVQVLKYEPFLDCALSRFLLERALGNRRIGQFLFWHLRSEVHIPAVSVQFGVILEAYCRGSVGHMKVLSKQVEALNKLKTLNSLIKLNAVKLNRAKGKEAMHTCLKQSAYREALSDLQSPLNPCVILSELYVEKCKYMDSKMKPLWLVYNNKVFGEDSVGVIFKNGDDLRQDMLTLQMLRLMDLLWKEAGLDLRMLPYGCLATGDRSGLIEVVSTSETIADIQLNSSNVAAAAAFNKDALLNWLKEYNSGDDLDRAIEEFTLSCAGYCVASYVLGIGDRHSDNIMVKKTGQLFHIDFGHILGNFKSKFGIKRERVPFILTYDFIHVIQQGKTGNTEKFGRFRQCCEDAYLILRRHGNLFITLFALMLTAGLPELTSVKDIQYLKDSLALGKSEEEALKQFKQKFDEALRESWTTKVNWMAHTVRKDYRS

[14] = target: Phosphatidylinositol 4,5-bisphosphate 3-kinase catalytic subunit gamma isoform (Homo sapiens, UniProt P48736); assay: Inhibition of PI3Kgamma (unknown origin) using PIP2 as substrate in presence of ATP incubated for 60 mins by ADP-glo based luminescence assay
Chain of Phosphatidylinositol 4,5-bisphosphate 3-kinase catalytic subunit gamma isoform (P48736 whole entry, canonical isoform): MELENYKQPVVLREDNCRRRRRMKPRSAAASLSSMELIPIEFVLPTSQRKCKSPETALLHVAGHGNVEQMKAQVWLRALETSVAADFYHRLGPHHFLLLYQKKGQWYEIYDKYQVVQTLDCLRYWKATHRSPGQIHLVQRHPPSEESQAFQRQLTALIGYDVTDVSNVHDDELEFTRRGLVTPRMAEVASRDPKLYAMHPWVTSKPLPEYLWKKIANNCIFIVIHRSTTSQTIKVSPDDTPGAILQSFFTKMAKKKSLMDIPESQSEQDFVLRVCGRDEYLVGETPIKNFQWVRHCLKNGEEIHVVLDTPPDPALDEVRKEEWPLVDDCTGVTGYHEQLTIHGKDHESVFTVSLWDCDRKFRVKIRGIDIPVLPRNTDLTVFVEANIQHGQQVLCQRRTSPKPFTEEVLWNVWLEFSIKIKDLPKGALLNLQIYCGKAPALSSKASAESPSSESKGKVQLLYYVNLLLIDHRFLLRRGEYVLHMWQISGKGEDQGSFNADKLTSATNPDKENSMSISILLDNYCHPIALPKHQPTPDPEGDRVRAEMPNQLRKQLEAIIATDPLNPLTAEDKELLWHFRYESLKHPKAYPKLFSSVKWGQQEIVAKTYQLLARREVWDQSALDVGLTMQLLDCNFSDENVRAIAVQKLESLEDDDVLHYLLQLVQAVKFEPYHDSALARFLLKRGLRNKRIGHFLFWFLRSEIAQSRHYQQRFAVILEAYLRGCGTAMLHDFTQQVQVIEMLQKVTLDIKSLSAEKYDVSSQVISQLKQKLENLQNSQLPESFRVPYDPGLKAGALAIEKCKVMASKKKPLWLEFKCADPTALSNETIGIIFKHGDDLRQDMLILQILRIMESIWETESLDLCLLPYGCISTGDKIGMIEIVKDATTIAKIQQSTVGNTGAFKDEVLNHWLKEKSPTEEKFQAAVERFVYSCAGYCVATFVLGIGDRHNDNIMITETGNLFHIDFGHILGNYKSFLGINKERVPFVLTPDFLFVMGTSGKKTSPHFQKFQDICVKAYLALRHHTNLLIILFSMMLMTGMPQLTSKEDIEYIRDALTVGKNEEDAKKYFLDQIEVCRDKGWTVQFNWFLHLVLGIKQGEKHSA

[15] = target: T1, Phosphatidylinositol 4,5-bisphosphate 3-kinase catalytic subunit delta isoform (Homo sapiens, UniProt O00329); assay: Inhibition of PI3Kdelta (unknown origin) using PIP2 as substrate in presence of ATP incubated for 60 mins by ADP-glo based luminescence assay
T1 sequence (O00329 whole entry): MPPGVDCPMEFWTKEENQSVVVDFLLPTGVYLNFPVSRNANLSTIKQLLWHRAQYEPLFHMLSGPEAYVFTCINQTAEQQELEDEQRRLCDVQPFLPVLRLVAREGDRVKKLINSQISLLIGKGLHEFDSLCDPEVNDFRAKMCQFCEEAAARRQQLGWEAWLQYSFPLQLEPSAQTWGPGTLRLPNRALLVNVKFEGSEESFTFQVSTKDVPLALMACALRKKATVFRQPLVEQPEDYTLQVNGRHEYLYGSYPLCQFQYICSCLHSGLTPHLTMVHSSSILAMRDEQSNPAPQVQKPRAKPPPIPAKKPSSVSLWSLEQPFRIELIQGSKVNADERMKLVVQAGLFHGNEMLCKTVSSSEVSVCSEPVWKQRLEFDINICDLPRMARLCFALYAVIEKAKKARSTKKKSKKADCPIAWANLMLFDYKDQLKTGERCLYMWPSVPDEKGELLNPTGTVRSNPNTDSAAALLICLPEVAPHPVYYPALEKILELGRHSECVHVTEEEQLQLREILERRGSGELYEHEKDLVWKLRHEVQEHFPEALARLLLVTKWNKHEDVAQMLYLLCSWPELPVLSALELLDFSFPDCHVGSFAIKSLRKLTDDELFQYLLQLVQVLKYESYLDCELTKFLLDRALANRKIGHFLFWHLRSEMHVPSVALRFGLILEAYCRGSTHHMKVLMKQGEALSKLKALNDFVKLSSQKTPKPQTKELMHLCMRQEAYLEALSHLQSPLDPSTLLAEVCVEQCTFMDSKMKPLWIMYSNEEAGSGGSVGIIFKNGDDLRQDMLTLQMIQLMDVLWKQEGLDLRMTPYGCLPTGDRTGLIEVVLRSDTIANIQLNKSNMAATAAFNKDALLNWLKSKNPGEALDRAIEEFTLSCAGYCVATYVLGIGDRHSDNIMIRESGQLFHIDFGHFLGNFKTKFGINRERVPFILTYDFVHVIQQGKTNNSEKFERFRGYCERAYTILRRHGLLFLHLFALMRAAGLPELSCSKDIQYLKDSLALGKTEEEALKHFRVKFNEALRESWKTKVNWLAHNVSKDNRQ

MDA-MB-231 = assay: Antiproliferative activity against human MDA-MB-231 cells assessed as reduction in cell viability incubated for 48 hrs by MTT assay; format: functional, cell-based; settings: MDA-MB-231, 48 h
HeLa = assay: Antiproliferative activity against human HeLa cells assessed as reduction in cell viability incubated for 48 hrs by MTT assay; format: functional, cell-based
CNE-2 = assay: Antiproliferative activity against human CNE-2 cells assessed as reduction in cell viability incubated for 48 hrs by MTT assay; format: functional, cell-based; settings: CNE-2, 48 h
HCT-116 [16] = assay: Antiproliferative activity against human HCT-116 cells assessed as reduction in cell viability incubated for 48 hrs by MTT assay; format: functional, cell-based; settings: HCT-116, 48 h
HepG2 = assay: Antiproliferative activity against human HepG2 cells assessed as reduction in cell viability incubated for 48 hrs by MTT assay; format: functional, cell-based; settings: HepG2, 48 h
A-431 = assay: Antiproliferative activity against human A431 cells harboring wild type EGFR mutant assessed as reduction in cell viability incubated for 72 hrs by celltiter-glo assay; format: functional, cell-based; settings: A-431, 72 h
NCI-H1975 = assay: Antiproliferative activity against human NCI-H1975 cells harboring EGFR L858R/T790M double mutant assessed as reduction in cell viability incubated for 72 hrs by celltiter-glo assay; format: functional, cell-based; settings: NCI-H1975, 72 h
BaF3 = assay: Antiproliferative activity against mouse BaF3 cells harboring EGFR L858R/T790M/C797S mutant assessed as reduction in cell viability incubated for 72 hrs by celltiter-glo assay; format: toxicity, cell-based; settings: BaF3, 72 h

In the case of `CN(C)C1CCN(C(=O)c2ccc(NC(=O)Nc3ccc(-c4nc(N5CCOCC5)nc(N5CCOCC5)n4)cc3)cc2)CC1` [GEDATOLISIB], the inhibition (HCT-116 [1]) was “Active”, the Stability [2] was “Stable” and the AUC(0-t) at 72 h [3] was 41800 ng·h/mL. The AUC(0-inf) [4] was 42200 ng·h/mL, the MRT [5] was 9.1 h and the half-life [6] was 15 h. For the same compound, the Tmax [7] was 1.8 min, the Vdss [8] was 10.3 L/kg and the pIC50 (Cytochrome P450 1A2) was under 4.30. For the same compound, the pIC50 (Cytochrome P450 2C9) was under 4.30, the pIC50 (Cytochrome P450 2C19) was under 4.30 and the pIC50 (Cytochrome P450 2D6) was under 4.30. For the same compound, the Activity (HCT-116 [9]) was 800.3 mm3, the inhibition in vivo at 20 mg/kg (HCT-116 [10]) was 41.2% and the Activity (Spleen) was “Non-Toxic”. The Activity (Heart) was “Non-Toxic”, the Activity (Lung) was “Non-Toxic” and the Activity (Kidney) was “Non-Toxic”. The Activity (Liver) was “Non-Toxic” and the Activity (Mus musculus) was “Toxic”.

For `NC(=O)[C@@H]1CC(O)CN1C(=O)c1ccc(NC(=O)Nc2ccc(-c3nc(N4CCOCC4)nc(N4CCOCC4)n3)cc2)cc1` (stereo partly specified), the pIC50 [11] was 8.26, the pIC50 [12] was 8.66 and the pIC50 [13] was 7.92. The pIC50 [14] was 7.01, the pIC50 [15] was 7.79 and the pIC50 (MDA-MB-231) was 4.41. The pIC50 (HeLa) was 4.87, the pIC50 (CNE-2) was 5.27 and the pIC50 (HCT-116 [16]) was 5.32. The pIC50 (HepG2) was 5.50, the pIC50 (A-431) was 5.20 and the pIC50 (NCI-H1975) was 5.26. The pIC50 (BaF3) was 5.57.

`C[C@@H](NC(=O)c1ccc(NC(=O)Nc2ccc(-c3nc(N4CCOCC4)nc(N4CCOCC4)n3)cc2)cc1)C(N)=O` gave a pIC50 [11] of 9.05, a pIC50 [12] of 8.68 and a pIC50 [13] of 8.29. For the same compound, the pIC50 [14] was 7.55, the pIC50 [15] was 7.60 and the pIC50 (MDA-MB-231) was 6.03. It also gave a pIC50 (HeLa) of 5.72, a pIC50 (CNE-2) of 4.90 and a pIC50 (HCT-116 [16]) of 5.44. For the same compound, the pIC50 (HepG2) was 6.34, the pIC50 (A-431) was 5.94 and the pIC50 (NCI-H1975) was 5.47. For the same compound, the pIC50 (BaF3) was 6.26.

— ChEMBL document CHEMBL5046253, “Synthesis and bioevaluation of diaryl urea derivatives as potential antitumor agents for the treatment of human colorectal cancer” (Eur J Med Chem, 2022)
